In patent EP3928779A1 (Chugai Seiyaku Kabushiki Kaisha, priority 2014, dated 2016):

tested on: rat small-intestinal brush border membrane vesicles; test: Inhibitory effect on 33PO4 uptake into rat small-intestinal brush border membrane vesicles (rapid filtration method); type: biochemical; details: 33PO4 uptake into rat small-intestinal BBMVs; test compound 1 µM; reacted for 60 seconds
In short: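 Uptake of ^33PO4 was measured by rapid filtration and liquid scintillation counting of filter-retained vesicles, after quenching with ice-cold 110 mM NaCl/1 mM KH2PO4/10 mM HEPES pH 7.5. Vesicles were brush border membranes from the upper small intestine of female Wistar rats aged 4–5 weeks.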

| SMILES | Rate of uptake inhibition (%) (1 µM) |
| --- | --- |
| Cc1nc(NC(=O)C2=C(O)C3(CCC3)N(C)N(Cc3cccc(F)c3F)C2=O)ccc1Br [Example 259] | 52 |
| COC[C@@H]1CCCN1CCOc1ccc(CN2C(=O)C(C(=O)Nc3ccc(C(F)(F)F)cc3-c3cc(C(F)(F)F)ncn3)=C(O)C3(CCCC3)N2C)c(F)c1F [Example 375] | 31 |
| CC1(C)CC[C@]2(C)C(O)=C(C(=O)Nc3cc(C(F)(F)F)ccc3-c3ccc(C(F)(F)F)nc3)C(=O)N(Cc3cccc(F)c3F)N12 [Example 63] | 72 |
| COCCN(C)CCOCCOc1ccc(CN2C(=O)C(C(=O)Nc3ccc(C(F)(F)F)cc3-c3cc(C(F)(F)F)ncn3)=C(O)C3(CCCC3)N2C)c(F)c1F [Example 429, 7-[[2,3-Difluoro-4-[2-[2-[2-methoxyethyl(methyl)amino]ethoxy]ethoxy]phenyl]methyl]-10-hydroxy-6-methyl-8-oxo-N-[4-(trifluoromethyl)-2-[6-(trifluoromethyl)pyrimidin-4-yl]phenyl]-6,7-diazaspiro[4.5]dec-9-ene-9-carboxamide] | 41 |
| COc1cc(-c2cc(C(F)(F)F)ccc2NC(=O)C2=C(O)C(C)(C)N(C)N(Cc3cccc(F)c3F)C2=O)cnc1C#N [Example 302] | 79 |
| C[C@]12CCCN1N(Cc1cccc(F)c1F)C(=O)C(C(=O)Nc1ccc(Cl)cn1)=C2O [Example 79] | 71 |
| Cc1cccc(CN2C(=O)C(C(=O)Nc3cc(F)c(Br)c(F)c3)=C(O)[C@@]3(C)CCCN23)c1F [Example 195] | 76 |
| C[C@]12CCCN1N(Cc1cc(Cl)ccc1F)C(=O)C(C(=O)Nc1ccc(C(F)(F)F)cc1-c1cc(C(F)(F)F)ncn1)=C2O [Example 211] | 72 |
| CN1[C@@H](C(C)(C)C)C(O)=C(C(=O)Nc2cnc(C(F)(F)F)nc2-c2ccc(C(F)(F)F)nc2)C(=O)N1Cc1ccc(OCCN2CCOCC2)c(F)c1F [Example 273] | 41 |
| C[C@]12CCCN1N(Cc1cccc(F)c1F)C(=O)C(C(=O)Nc1ccc(C(F)(F)F)cc1-c1cncc(C(F)(F)F)c1)=C2O [Example 91] | 87 |
| CSc1cc(-c2cc(C(F)(F)F)ccc2NC(=O)C2=C(O)[C@@]3(C)CCCN3N(Cc3cccc(F)c3F)C2=O)cnc1C#N [Example 113, (4aR)-N-[2-(6-Cyano-5-methylsulfanylpyridin-3-yl)-4-(trifluoromethyl)phenyl]-1-[(2,3-difluorophenyl)methyl]-4-hydroxy-4a-methyl-2-oxo-6,7-dihydro-5H-pyrrolo[1,2-b]pyridazine-3-carboxamide] | 84 |
| C[C@]12CCCN1N(Cc1cccc([N+](=O)[O-])c1)C(=O)C(C(=O)Nc1ccc(Br)c(F)c1)=C2O [Example 27] | 76 |
| CN1CCC(Oc2ccc(CN3C(=O)C(C(=O)Nc4ccc(C(F)(F)F)cc4-c4cc(C(F)(F)F)ncn4)=C(O)C4(CCC4)N3C)c(F)c2F)CC1 [Example 411] | 32 |
| C[C@]12CCCN1N(Cc1cccc(F)c1F)C(=O)C(C(=O)Nc1ccc(C(F)(F)F)cc1-c1cnc3ccccc3c1)=C2O [Example 83] | 90 |
| C[C@]12CCCN1N(Cc1c(F)cc(OCCCCCOC[C@@H](O)CO)cc1F)C(=O)C(C(=O)Nc1ccc(C(F)(F)F)cc1-c1ccc(C(F)(F)F)nc1)=C2O [Example 153] | 73 |
| C[C@]12CCCN1N(Cc1ccccc1C#N)C(=O)C(C(=O)Nc1cc(F)c(Br)c(F)c1)=C2O [Example 218] | 82 |
| COC(=O)CN(C)c1ncc(-c2cc(C(F)(F)F)ccc2NC(=O)C2=C(O)[C@@]3(C)CCCN3N(Cc3cccc(F)c3F)C2=O)cc1C#N [Example 112, Methyl 2-[[5-[2-[[(4aR)-1-[(2,3-difluorophenyl)methyl]-4-hydroxy-4a-methyl-2-oxo-6,7-dihydro-5H-pyrrolo[1,2-b]pyridazine-3-carbonyl]aminol-5-(trifluoromethyl)phenyl]-3-cyanopyridin-2-yl-methylamino] acetate] | 43 |
| CSc1ccc(-c2cc(C(F)(F)F)ccc2NC(=O)C2=C(O)[C@@]3(C)CCCN3N(Cc3ccc(C#CCCCCC(=O)O)c(F)c3F)C2=O)cn1 [Example 117, 7-[4-[[(4aR)-4-Hydroxy-4a-methyl-3-[[2-(6-methylsulfanylpyridin-3-yl)-4-(trifluoromethyl)phenyl]carbamoyl]-2-oxo-6.7-dihydro-5H-pyrrolo[1.2-b]pyridazin-1-yl]methyl]-2,3-difluorophenyl]hept-6-ynoate] | 78 |
| C[C@@]12CCCN1N(Cc1ccc(OCCN3CCOCC3)c(F)c1F)C(=O)C(C(=O)Nc1ccc(C(F)(F)F)cc1-c1cc(C(F)(F)F)ncn1)=C2O.Cl [Example 108] | 54 |

| SMILES | Rate of uptake inhibition (%) (1 µM) |
| --- | --- |
| C[C@]12CCCN1N(Cc1cccc(F)c1F)C(=O)C(C(=O)Nc1ccc(C(F)(F)F)cc1-c1ncnc(Cl)c1Cl)=C2O [Example 70] | 79 |
| COCCN(C)CCOCCOCCOCCOc1ccc(CN2C(=O)C(C(=O)Nc3ccc(C(F)(F)F)cc3-c3cc(C(F)(F)F)ncn3)=C(O)C3(CCCC3)N2C)c(F)c1F [Example 431] | 26 |
| C[C@]12CCCN1N(Cc1c(F)cc(C#CCCOC[C@H](O)CO)cc1F)C(=O)C(C(=O)Nc1ccc(C(F)(F)F)cc1-c1ccc(C(F)(F)F)nc1)=C2O [Example 145] | 78 |
| C[C@]12CCCN1N(Cc1cccc(OC(F)F)c1)C(=O)C(C(=O)Nc1ccc(C(F)(F)F)cc1-c1cc(C(F)(F)F)ncn1)=C2O [Example 177] | 85 |
| COCCOCCOc1ccc(CN2C(=O)C(C(=O)Nc3ccc(C(F)(F)F)cc3-c3cc(C(F)(F)F)ncn3)=C(O)C3(CCC3)N2C)c(F)c1F [Example 401] | 39 |
| C[C@]12CCCN1N(Cc1c(F)cccc1Cl)C(=O)C(C(=O)Nc1ccc(C(F)(F)F)cc1-c1ccc(C(F)(F)F)nc1)=C2O [Example 204] | 87 |
| CN1N(Cc2ccc(OCCOCCOCCOCCNC(=O)[C@@H](O)[C@H](O)[C@@H](O)[C@@H](O)CO)c(F)c2F)C(=O)C(C(=O)Nc2ccc(C(F)(F)F)cc2-c2cc(C(F)(F)F)ncn2)=C(O)C12CCCC2 [Example 428, 7-[[2,3-Difluoro-4-[2-[2-[2-[2-[[(2S,3R,4S,5S)-2,3,4,5,6-pentahydroxyhexanoyl]amino]ethoxy]ethoxy]ethoxy]ethoxy]phenyl]methyl]-10-hydroxy-6-methyl-8-oxo-N-[4-(trifluoromethyl)-2-[6-(trifluoromethyl)pyrimidin-4-yl]phenyl]-6,7-diazaspiro[4. 5]dec-9-ene-9-carboxamide] | 14 |
| Cc1c(C#N)ncnc1-c1cc(C(F)(F)F)ccc1NC(=O)C1=C(O)[C@@]2(C)CCCN2N(Cc2cccc(F)c2F)C1=O [Example 24] | 76 |
| CN1N(Cc2ccc(OCCOCCNC(=O)[C@@H](O)[C@H](O)[C@@H](O)[C@@H](O)CO)c(F)c2F)C(=O)C(C(=O)Nc2ccc(C(F)(F)F)cc2-c2cc(C(F)(F)F)ncn2)=C(O)C12CCCC2 [Example 427, 7-[[2,3-Difluoro-4-[2-[2-[[(2S,3R,4S,5S)-2,3,4,5,6-pentahydroxyhexanoyl]amino]ethoxy]ethoxy]phenyl]methyl]-10-hydroxy-6-methyl-8-oxoN-[4-(trifluoromethyl)-2-[6-(trifluoromethyl)pyrimidin-4-yl]phenyl]-6,7-diazaspiro[4.5]dec-9-ene-9-carboxamide] | 12 |
| C[C@@H]1COC[C@H](C)N1CCOc1ccc(CN2C(=O)C(C(=O)Nc3ccc(C(F)(F)F)cc3-c3cc(C(F)(F)F)ncn3)=C(O)C3(CCCC3)N2C)c(F)c1F [Example 370] | 41 |
| CN1N(Cc2ccc(OCCCCCOCCCO)c(F)c2F)C(=O)C(C(=O)Nc2ccc(C(F)(F)F)cc2-c2cc(C(F)(F)F)ncn2)=C(O)C12CCCC2 [Example 400] | 36 |
| COc1cccc(-c2cc(C(F)(F)F)ccc2NC(=O)C2=C(O)[C@@]3(C)CCCN3N(Cc3ccc(OC4CCOCC4)c(F)c3F)C2=O)c1OC [Example 158] | 84 |
| C[C@]12CCCN1N(Cc1cccc(F)c1F)C(=O)C(C(=O)Nc1ccc(C(F)(F)F)cc1-c1cc(C#N)ncn1)=C2O [Example 100] | 69 |
| C[C@]12CCCN1N(Cc1cccc(F)c1F)C(=O)C(C(=O)Nc1ccc(C(F)(F)F)cc1-c1ccc(C(F)(F)F)nc1)=C2O [Example 90] | 91 |
| CN1N(Cc2ccc(OCCN3CCN(CCO)CC3)c(F)c2F)C(=O)C(C(=O)Nc2ccc(C(F)(F)F)cc2-c2cc(C(F)(F)F)ncn2)=C(O)C12CCC2 [Example 360] | 21 |
| CN1N(Cc2ccc(OCCCCCOCCO)c(F)c2F)C(=O)C(C(=O)Nc2ccc(C(F)(F)F)cc2-c2cc(C(F)(F)F)ncn2)=C(O)C12CCCC2 [Example 397] | 40 |
| C[C@]12CCCN1N(Cc1ccc(OCCCCCO)c(F)c1F)C(=O)C(C(=O)Nc1ccc(C(F)(F)F)cc1-c1cc(C(F)(F)F)ncn1)=C2O [Example 162] | 73 |
| COCCOc1cc(NC(=O)C2=C(O)[C@@]3(C)CCCN3N(Cc3cccc(F)c3F)C2=O)c(-c2cccc(OC)c2OC)cc1C(F)(F)F [Example 92] | 81 |
